Measurements as given in patent US20250152528A1, “RAPID RELIEF SPRAY” (HALEON US HOLDINGS LLC, priority 2022, published 2025).
Counter-ions that a name gives are not always drawn.

What was measured:
[1] = Two weak acid combinations with lidocaine citrate: pH, precipitation and stability at 4° C. for 3 months; settings: for Observation: appearance of solution; for Time to Lidocaine Citrate Precipitation: kept at 4° C. for 3 months; for pH: lidocaine citrate solution (25 wt. % ethanol, 15 wt. % glycerin, 2.5 wt. % propylene glycol) with 2 wt. % acidifying agent; for colour of solution after change from clear: ambient conditions
[2] = has been observed; in aqueous solutions; cited from earlier work
[3] = cited from earlier work
[4] = Crystallization inhibitors and free base lidocaine crystallization in low pH solutions; assay type: physicochemical; settings: 5.0 wt. % lidocaine free base, Example 1 composition; 0.5, 1.0, 2.0 wt. % Kollidon VA 64, PVP K-90, PVP K-25 or PVP K-30; pH=3.5 and pH=4 by excess citric acid; 24 samples
[5] = 5.0 wt. % lidocaine free base, 3.6 wt. % citric acid, 15 wt. % glycerin, 25 wt. % ethanol, water; pH adjusted between 4.5 to 3.5 with excess citric acid at 25° C.
[6] = 5 wt. % lidocaine free base in water with 24 wt. % isopropyl alcohol, 54 wt. % ethanol, or 10 wt. % isopropyl alcohol and 20 wt. % ethanol; pH 4.0 and 3.5 by excess citric acid
[7] = 2% acidifying agent, pH range of 4.2 to 3.3

Compound | Observation ([1]; 2 wt. % acidifying agent) | Time to Lidocaine Citrate Precipitation ([1]; 2 wt. % acidifying agent) | pH [1] | also measured
O=C(O)CCCCC(=O)O [Adipic Acid] |  |  |  | prevention of lidocaine citrate precipitation ([1]; 5% acidifying agent): did not prevent precipitation; Observation ([1]; 5% acidifying agent): Clear; Time to Lidocaine Citrate Precipitation ([1]; 5% acidifying agent): 2 weeks
O=C1O[C@H]([C@@H](O)CO)C(O)=C1O [Ascorbic acid] |  |  |  | prevention of lidocaine citrate precipitation ([1]; 5% acidifying agent): prevented lidocaine citrate precipitation; colour of solution after change from clear ([1]; 5% acidifying agent): orange; Observation ([1]; 5% acidifying agent): Oxidized; Time to Lidocaine Citrate Precipitation ([1]; 5% acidifying agent): Not observed
O=C(O)[C@H](O)[C@@H](O)C(=O)O [L-Tartaric acid] | Clear | Not observed | 3.71 | 
CC(O)C(=O)O (stereo not shown) [Lactic acid] | Clear | Not observed | 4.05 | 
O=C(O)/C=C\C(=O)O [Maleic acid] | Oxidized | Not observed | 3.32 | colour of solution after change from clear ([1]; 2% acidifying agent): pale yellow solutions; prevention of lidocaine citrate precipitation [1, 7]: prevented lidocaine citrate precipitation
CNC[C@H](O)c1cccc(O)c1 [Phenylephrine] |  |  |  | pH of solutions in which stable ([3]; background statement): ≤ 4.0
O=C(O)CCC(=O)O [Succinic acid] | Clear | Not observed | 4.23 | 
CCN(CC)CC(=O)Nc1c(C)cccc1C [lidocaine free base, lidocaine] |  |  |  | lidocaine crystallization with crystallization inhibitors [4]: thick layer of lidocaine crystallization; pH at which precipitation of lidocaine starts [5]: 4.0
CNC[C@H](O)c1cccc(O)c1 [phenylephrine HCl] |  |  |  | pH of solutions in which unstable ([3]; approximately): > 4
lidocaine citrate |  |  |  | crystallization in aqueous alcohol cosolvents [6]: crystallized out of all samples as an opaque layer; pH of lower pH solutions in which the salt crystallizes out (citrate salt generated in situ): ≤ 4.5
lidocaine malate |  |  |  | crystallization at low pH on storage (1:1 molar lidocaine free base and malic acid in water, excess malic acid to pH 3.6, several weeks at 4° C.): No lidocaine malate crystallization was observed

Now from value to compound, other results behind:

Observation ([1]; 2 wt. % acidifying agent) | Time to Lidocaine Citrate Precipitation ([1]; 2 wt. % acidifying agent) | pH [1] | Compound | also measured
Clear | Not observed | 4.00 | CC(=O)O [Acetic Acid] | 
Oxidized | Not observed | 3.72 | O=C(O)/C=C/C(=O)O [Fumaric acid] | colour of solution after change from clear ([1]; 2% acidifying agent): pale yellow solutions; prevention of lidocaine citrate precipitation [1, 7]: prevented lidocaine citrate precipitation
Clear | Not observed | 3.93 | O=C(O)CC(O)C(=O)O (stereo not shown) [Malic Acid] | amount at which irritant to a healthy skin [2]: ≥ 5 wt. %
